Patent US10206894B2, “Compounds for use in treatment of mucositis” (priority 2011, dated 2019)

Columns and labels:
[1] = tested on: FaDu human head and neck cancer xenograft; experiment: Tumor growth and response to therapy in FaDu xenograft; type: in vivo, nude mice (nu/nu)
Procedure: Ninety (90) male nude mice (nu/nu) were divided into nine (9) groups of ten […]) mice per group. To ensure that a sufficient number of tumor-bearing animals were available for this study, a total of 100 mice were inoculated s.c. in the flank with 1×10^6 FaDu cells. FaDu (HTB-43) human head and neck cancer cells were obtained from ATCC. These cells were grown in EMEM medium supplemented with 10% Fetal Calf Serum (FCS), 1% penicillin and streptomycin, and 2 mM L-Glutamine. […] The flask was incubated at 37° C. until cells detached. Cells were then sub-cultured at a ratio of 1:3. […] Tumors were measured once every two days with micro-calipers, and tumor volume was calculated as (length×width×width)/2. Where animals were euthanized for tumor volume exceeding the maximum permissible by IACUC rules (1500 mm^3) or tumor ulceration, the last measurement was carried forward in calculations of mean tumor volume.
All animals were weighed every day and their survival recorded, to assess possible differences in animal weight among treatment groups as an indication of possible toxicity resulting from the treatments. […] Any animals whose tumor grew to over 1500 mm^3 were also euthanized.
Further analysis of the tumor volume data was performed by calculating the mean area under the curve (AUC) for the tumor volume for each animal and comparing the groups using an ANOVA on ranks test. Due to the impact of animals euthanized for tumor ulceration or volume in excess of 1500 mm^3, this analysis was performed on data to Day 15 as well as on the full data set to Day 29.

[2] = tested on: radiation-induced oral mucositis, left buccal cheek pouch; settings: Acute Radiation; published results in nearly identical models; cited from earlier work
[3] = tested on: fractionated radiation and cisplatin induced oral mucositis, left buccal cheek pouch; settings: published results in nearly identical models; cited from earlier work
[4] = groups receiving cisplatin chemotherapy 5 mg/kg (with vehicle or Compound X)

SMILES | mean weight gain ([1]; cisplatin 5 mg/kg plus vehicle, by Day 15) [%] | average gain of starting weight ([1]; cisplatin 5 mg/kg plus vehicle, by the end of the study) [%] | p, tumor volume AUC to Day 15 vs vehicle control group (ANOVA on ranks) ([1]; cisplatin plus vehicle) | mean tumor volume ([1]; cisplatin plus vehicle, Day 1) [mm^3] | mean tumor volume ([1]; cisplatin plus vehicle, Day 15) [mm^3] | mean tumor volume ([1]; cisplatin plus vehicle, end of the study) [mm^3] | animals euthanized for tumor size [1, 4] [%] | animals euthanized for tumor ulceration [1, 4] [%] | animals survived [1, 4] [%] | % reduction of animal days with OM scores ≥ 3 [2] | % reduction of animal days with OM scores ≥ 3 [3] [%]
N.N.[Cl][Pt][Cl] [cisplatin, reference compound] | 7.2 | 13.0 | 0.011 | 100 | 652 | 302 | 23 | 26.7 | 50 |  | 
N[C@H](CCC(=O)N[C@@H](Cc1c[nH]c2ccccc12)C(=O)O)C(=O)O [SCV-07] |  |  |  |  |  |  |  |  |  | 68.3%-77.6% | 33.3
